Source: patent US20260184692A1, “HETEROCYCLIC COMPOUNDS, PREPARATION METHODS AND USES THEREOF” (InventisBio Co., Ltd., priority 2022, published 2026)

How the values were obtained:
[1] = tested on: OVCAR3 Cells; experiment: OVCAR3 Cell Viability Assay (CellTiter-Glo); assay type: cell-based; conditions: Homo sapiens, OVCAR-3, 144 h, 6 days incubation, read-out: OVCAR3 CTG IC50
Description: (§1) OVCAR3 Cells (ATCC, Cat #HTB-161) were seeded at a density of 2000 cells/well in a 96-well clear bottom plate (Greiner, Cat #655098) in 100 μL of complete media (RPMI1640+20% FBS+0.01 mg/mL human insulin). One hundred microliter of complete media was added into the blank well (column 1) for low control. Cells were allowed to adhere to the plate overnight in the incubator at 37° C., 5% CO2. On the following day, 0.5 μL of serially-diluted compounds were added to the cells (columns 2-10) and incubated for 6 days at 37 C, 5% CO2 (final 0.5% DMSO concentration); 0.5 μL of DMSO solution was added into the wells (column 11) for high control. Cell viability was detected according to the CellTiter-Glo Luminescent Cell Viability Assay Kit (Promega, Cat #G7573). Luminescence was recorded on the Tecan Spark plate reader. Inhibition rate (IR) of the tested compounds was determined by the following formula: IR (%)=(1−(RLUcompound−RLUlow control)/(RLUhigh control−RLUlow control))×100%. The IC50 value was calculated using the non-linear regression equation: Y=Bottom+(Top−Bottom)/(1+10^((Log IC50−X)×HillSlope)), where X is Log of compound concentration, Y is percent inhibition (IR (%)), Top and Bottom are plateaus in same units as Y.

[2] = Human Plasma Protein Binding Assay (dialysis); assay type: in vitro ADME; conditions: 1 μM compound, dialysis 6 hr at 37 °C
Description: The plasma protein binding of compounds in human plasma was determined using a dialysis method. The dialysis membrane strips were prepared by soaking them in ultra-pure water for about 1 hr at room temperature, followed by separation and soaking in ethanol:water (20:80 v:v) for about 20 min, and a final rinse with ultra-pure water. Prior to use, the membranes were rinsed and soaked for another 20 min in ultra-pure water.
The blank plasma samples were thawed, centrifuged and verified its pH values. Only the plasma with pH between 7.0-8.0 was used in the experiment. The final concentration of compound in the spiked plasma is 1 μM, with final DMSO<=1%. All samples were prepared in triplicates. The time zero (T0) samples was used for determining the recovery of the compound of interest after dialysis. It was prepared in the same way as other dialysis samples except it was stored at 2-8° C. before LC-MS/MS analysis.
The other spiked plasma samples were loaded onto the dialysis device and incubated at and 37±1° C. with 5% CO2 for 6 hr. At the end of the dialysis, aliquots of samples from the plasma and buffer sides of the dialysis device were taken and processed for LC-MS/MS analysis.
The % Unbound, % Bound, and % Recovery of the compounds were calculated from the peak area ratios of the analyte and internal standard in the plasma and buffer samples as shown in the following equations:
[formula] [formula] [formula] • where [F] is the peak area ratio of analyte/internal standard on the buffer (receiver) side of the membrane; [T] is the peak area ratio of analyte/internal standard on the plasma (donor) side of the membrane; [T0] is the peak area ratio of analyte/internal standard in the plasma sample at time zero.

[3] = Human Microsomal Clearance Assay; assay type: in vitro ADME; conditions: pH 7.4, human liver microsomes 0.5 mg/mL, 1 μM compound, 2 mM NADPH; for CLint scaled at 1 μM: in vitro intrinsic clearance
Description: This study aimed to assess the metabolic stability of a compound in human liver microsomes using a microsomal clearance assay.
A mixture containing 100 mM potassium phosphate, pH 7.4, 0.5 mg/mL liver microsomes, 2 mM NADPH, and 1 μM compound were prepared and added to 96-well plate. The plates were then incubated at 37° C. for different time points (0, 5, 15, 30, 45 minutes) and the reaction was stopped with acetonitrile solution containing an internal standard. The samples were then analyzed by LC/MS/MS to determine how much of the compound remained at each time point. The elimination rate constant and half-life were calculated from the data as follows: Elimination rate constant (k)=−slope; Half-life (T1/2)=0.693/k.
The in vitro intrinsic clearance, Clint, was calculated from the T1/2 as follows: Clint=(0.693/T1/2)×(1/(microsomal protein concentration (0.5 mg/mL)))×Physiological Scaling Factor.

[4] = tested on: HCC1806 Cells; experiment: HCC1806 Cell Viability Assay (CellTiter-Glo); assay type: cell-based; conditions: Homo sapiens, 144 h, 6 days incubation, read-out: HCC1806 CTG IC50
Description: as §1, with “HCC1806 Cells” for “OVCAR3 Cells”, “Cat #CRL-2335)” for “Cat #HTB-161)”, “of 500” for “of 2000”, “media (RPMI1640+10% FBS).” for “media (RPMI1640+20% FBS+0.01 mg/mL human insulin).”, “blank wells” for “blank well”, “at 37° C.,” for “at 37 C,”

[5] = Mouse PK Assay; assay type: in vivo; conditions: plasma, male BALB/c mouse; for MRT: IV; for half-life: single oral dose 5 mg/kg, read-out: PO T1/2 (converted)
[6] = molecular target: T1, P450 2C9 (Homo sapiens, UniProt P11712); experiment: In Vitro Cytochrome P450 Inhibition Study; assay type: in vitro ADME; conditions: human liver microsomes (HLM), test compound 0.137 μM to 10 μM, 10 min at 37 °C
T1 construct: incubation with known industry-accepted CYP450 substrates, test articles and microsomes (HLM); from tissue; host or cells: liver microsomes (HLM)
T1 sequence (P11712 whole entry): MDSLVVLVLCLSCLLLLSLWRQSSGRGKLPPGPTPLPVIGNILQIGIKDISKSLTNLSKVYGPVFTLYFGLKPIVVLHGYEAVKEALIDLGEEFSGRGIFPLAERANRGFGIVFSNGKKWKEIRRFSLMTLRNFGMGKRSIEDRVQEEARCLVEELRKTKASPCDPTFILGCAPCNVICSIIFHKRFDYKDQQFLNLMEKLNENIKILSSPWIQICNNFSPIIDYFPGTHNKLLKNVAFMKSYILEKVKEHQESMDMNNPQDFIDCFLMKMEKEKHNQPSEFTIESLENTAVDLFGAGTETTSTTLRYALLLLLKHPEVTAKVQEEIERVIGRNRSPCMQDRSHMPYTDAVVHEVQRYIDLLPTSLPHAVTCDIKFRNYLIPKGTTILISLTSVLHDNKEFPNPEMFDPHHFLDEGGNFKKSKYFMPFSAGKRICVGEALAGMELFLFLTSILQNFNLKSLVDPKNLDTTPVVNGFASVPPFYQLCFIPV
Description: CYP inhibition was evaluated by monitoring corresponding metabolite decrease after incubation with known industry-accepted CYP450 substrates, test articles and microsomes (HLM).
Eight reaction wells with 30 μL of a solution containing 100 mM potassium phosphate, pH 7.4 and 1:3 serial dilutions of the test compound were prepared along with eight wells of 1:3 serial dilutions of Sulfaphenazole (a positive control inhibitor). The assay plates were pre-warmed after 15 μL of probe substrate was added into appropriate wells. Then the reactions were initiated by adding 15 μL of a pre-warmed 8 mM NADPH solution resulting in a final NADPH concentration of 2 mM. The concentrations of test compound ranged from 0.137 μM to 10 μM. A zero time-point control reaction was prepared by adding 135 μL acetonitrile (ACN) containing tolbutamide (200 ng/mL) as internal standard (IS) to 30 μL. of the reaction solution to inactivate the enzymes before adding the probe substrate. A control reaction with no inhibitor was also prepared. After a suitable incubation at 37° C., 10 min, the reactions were terminated by the addition of 135 μL ACN containing IS. The reactions were prepared and analyzed for the metabolite forms of the probe substrate using LC-MS/MS.

Structure (SMILES)	IC50 [1]	IC50 [4]	also measured
O=C1c2ccc(NS(=O)(=O)CCO)cc2C2(CCC3(CC3)CC2)CN1c1ccnc(NC2CCC(F)(F)C2)n1 (single isomer, unassigned) [Compound 71]	< 200 nM		fraction unbound at 6 hr, 1 μM [2]: 0.0014
N#Cc1ccc(N2CC3(CCC4(CC4)CC3)c3cc(NS(=O)(=O)CCO)ccc3C2=O)nc1NC1CCC(F)(F)C1 (single isomer, unassigned) [Compound 110]			half-life at 1 μM [3]: 2.52 h; CLint scaled at 1 μM [3]: < 12.4 mL/min/kg
O=C1c2ccc(NS(=O)(=O)CCO)cc2C2(CCC3(CC3)CC2)CN1c1ccc2c(n1)N1CCC(F)(F)CC1CO2 (centres unmarked) [Compound 31]	200 to 2000 nM	200 to 2000 nM	
N#Cc1ccc(N2CC3(CCC4(CC4)CC3)c3cc(NS(=O)(=O)CCO)ccc3C2=O)nc1NC1CC(F)(F)C1 [Compound 56]	< 200 nM		half-life at 1 μM [3]: 2.37 h; CLint scaled at 1 μM [3]: < 12.4 mL/min/kg
N#Cc1ccc(N2CC3(CCC4(CC4)CC3)c3cc(NS(=O)(=O)CCO)c(F)cc3C2=O)nc1N1CCC(F)(F)CC1 [Compound 75]			MRT [5]: 8 h; half-life [5]: 6.3 h
N#Cc1ccc(N2CC3(CCC4(CC4)CC3)c3cc(NS(=O)(=O)CCO)ncc3C2=O)nc1N1CCC(F)(F)CC1 [Compound 80]	< 200 nM		IC50 [6]: > 10000 nM
CC1(C)CCC2(CC1)CN(c1ccc(C#N)c(N3CCC(F)(F)CC3)n1)C(=O)c1ccc(NS(=O)(=O)CCO)cc12 [Compound 90]	< 200 nM		IC50 [6]: > 10000 nM
CC1(C)CCC2(CC1)CN(c1ccc(C#N)c(NC3CC(F)(F)C3)n1)C(=O)c1ccc(NS(=O)(=O)CCO)cc12 [Compound 95]	< 200 nM		half-life at 1 μM [3]: 1.98 h; CLint scaled at 1 μM [3]: 14.6 mL/min/kg
N#Cc1ccc(N2CC3(CCC4(CCC4)CC3)c3cc(NS(=O)(=O)CCO)ccc3C2=O)nc1N1CCC(F)(F)CC1 [Compound 116]	< 200 nM		IC50 [6]: 6700 nM; MRT [5]: 6.9 h; half-life [5]: 4.6 h
CCS(=O)(=O)Nc1ccc2c(c1)C1(CCC3(CC3)CC1)CN(c1ccc(C#N)c(S(=O)(=O)NC(C)(C)C)c1)C2=O [Compound 120]	< 200 nM		fraction unbound at 6 hr, 1 μM [2]: 0.0122
CN1CCN(C(=O)c2ccc(N3CC4(CCC5(CC5)CC4)c4cc(NS(=O)(=O)CCO)ccc4C3=O)nc2N2CCC(F)(F)CC2)CC1 [Compound 172]	200 to 2000 nM		
Cc1nccc(-c2ccc(N3CC4(CCC5(CC5)CC4)c4cc(NS(=O)(=O)CCO)ccc4C3=O)nc2NC2CC(F)(F)C2)n1 [Compound 174]	< 200 nM		
CN1CC=C(c2ccc(N3CC4(CCC5(CC5)CC4)c4cc(NS(=O)(=O)CCO)ccc4C3=O)nc2N2CCC(F)(F)CC2)CC1 [Compound 176]	200 to 2000 nM		
CN1CCN(c2ccc(N3CC4(CCC5(CC5)CC4)c4cc(NS(=O)(=O)CCO)ccc4C3=O)nc2N2CCC(F)(F)CC2)C(=O)C1 [Compound 178]	< 200 nM		
CN1CCC(c2ccc(N3CC4(CCC5(CC5)CC4)c4cc(NS(=O)(=O)CCO)ccc4C3=O)nc2N2CCC(F)(F)CC2)CC1 [Compound 179]	200 to 2000 nM		
O=C1c2ccc(NS(=O)(=O)CCO)cc2C2(CCC3(CC3)CC2)CN1c1ccc(-c2cc[nH]n2)c(N2CCC(F)(F)CC2)n1 [Compound 180]	< 200 nM		

The next lines start with results.

IC50 [1]	IC50 [4]	Structure (SMILES)	also measured
< 200 nM	< 200 nM	O=C1c2ccc(NS(=O)(=O)CCO)cc2C2(CCC3(CC3)CC2)CN1c1ccnc(N2CCC(F)(F)CC2)n1 [Compound 1]	MRT [5]: 7.5 h; half-life [5]: 4.8 h
> 2000 nM	> 2000 nM	O=C(Nc1ccc2c(c1)ncn2CC(F)(F)F)c1ccc(NS(=O)(=O)CCO)cc1N1CCC2(CC1)CC2 [Compound 3]	
< 200 nM	< 200 nM	Cc1cc(NC(=O)c2ccc(NS(=O)(=O)CCO)cc2C2=CCC3(CC2)CC3)nc(N2CCC(F)(F)CC2)n1 [Compound 6]	
	> 2000 nM	CN1CCOc2ccc(NC(=O)c3ccc(NS(=O)(=O)CCO)cc3N3CCC4(CC3)CC4)nc21 [Compound 7]	
200 to 2000 nM	200 to 2000 nM	O=C1c2ccc(NS(=O)(=O)CCO)cc2C2(CCC3(CC3)CC2)CN1c1ccnc(N2CCC(F)(F)C2)n1 [Compound 12]	
< 200 nM		O=C1c2ccc(NS(=O)(=O)CCO)cc2C2(CCC3(CC3)CC2)CN1c1ccnc(NC2CC(F)(F)C2)n1 [Compound 21]	fraction unbound at 6 hr, 1 μM [2]: 0.002
200 to 2000 nM	200 to 2000 nM	O=C1c2ccc(NS(=O)(=O)CCO)cc2C2(CCC3(CC3)CC2)CN1c1cccc(N2CCC3CC32)n1 (centres unmarked) [Compound 26]	
< 200 nM	< 200 nM	CN(c1cccc(N2CC3(CCC4(CC4)CC3)c3cc(NS(=O)(=O)CCO)ccc3C2=O)n1)C1CC(F)(F)C1 [Compound 34]	
< 200 nM		COCCOc1ccc(N2CC3(CCC4(CC4)CC3)c3cc(NS(=O)(=O)CCO)ccc3C2=O)nc1N1CCC(F)(F)CC1 [Compound 136]	IC50 [6]: > 10000 nM
< 200 nM		Cn1cnc(-c2ccc(N3CC4(CCC5(CC5)CC4)c4cc(NS(=O)(=O)CCO)ccc4C3=O)nc2N2CCC(F)(F)CC2)n1 [Compound 175]	
